This is an account of results in article PMC6834076, “Crystal structures of the Bacillus subtilis prophage lytic cassette proteins XepA and YomS” (Acta Crystallographica. Section D, Structural Biology, 2019).

The structures appear in SMILES notation.

One assay addresses T1, XlyB (Bacillus subtilis, UniProt O34391).
T1 construct: full coding region, N-terminal His6 tag, vector pJOE5751 (plasmid pHWG1184), E. coli JM109, HisTrap; prophage PBSX gene
As to the kind of experiment: thermal shift assay (SYPRO Orange). The class given is binding. The note with it: (GlcNAc)3 concentration for this protein not stated (16 mM with HEWL).

Another assay has as its target T2, XlyA (Bacillus subtilis, UniProt P39800).
T2 construct: full coding region, N-terminal His6 tag, vector pJOE5751 (plasmid pHWG1185), E. coli JM109, HisTrap; prophage PBSX gene
As to the kind of experiment: thermal shift assay (SYPRO Orange). It is filed as binding. The note with it: (GlcNAc)3 concentration for this protein not stated (16 mM with HEWL).

T2 sequence (P39800 2-297): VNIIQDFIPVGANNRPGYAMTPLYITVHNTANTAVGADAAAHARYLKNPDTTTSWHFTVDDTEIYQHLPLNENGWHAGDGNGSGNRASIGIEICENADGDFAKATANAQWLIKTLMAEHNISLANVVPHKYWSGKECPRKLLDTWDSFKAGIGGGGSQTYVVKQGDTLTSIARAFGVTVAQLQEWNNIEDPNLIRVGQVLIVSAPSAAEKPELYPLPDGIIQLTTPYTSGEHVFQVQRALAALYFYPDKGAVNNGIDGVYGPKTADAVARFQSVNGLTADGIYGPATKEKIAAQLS
T1 sequence (O34391 2-317): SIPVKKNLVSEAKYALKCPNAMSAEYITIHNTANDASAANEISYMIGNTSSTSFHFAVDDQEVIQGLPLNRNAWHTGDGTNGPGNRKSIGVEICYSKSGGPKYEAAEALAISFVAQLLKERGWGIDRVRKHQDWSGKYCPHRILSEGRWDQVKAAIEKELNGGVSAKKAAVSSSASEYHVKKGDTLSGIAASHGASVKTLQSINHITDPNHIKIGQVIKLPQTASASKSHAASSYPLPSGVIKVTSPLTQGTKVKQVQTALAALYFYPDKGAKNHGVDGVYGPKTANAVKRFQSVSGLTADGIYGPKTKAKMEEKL

On to `CC(=O)N[C@H]1[C@H](O[C@H]2[C@H](O)[C@@H](NC(C)=O)C(O)O[C@@H]2CO)O[C@H](CO)[C@@H](O[C@@H]2O[C@H](CO)[C@@H](O)[C@H](O)[C@H]2NC(C)=O)[C@@H]1O` (some centres unmarked) [triacetylchitotriose], for which the dTm on XlyB and on XlyA was 2 °C each time.
